Measurements reported in ChEMBL document CHEMBL6127124, “Structure-Activity Relationships and Discovery of (S)-5-(tert-Butyl)-11-(difluoromethoxy)-9-methoxy-2-oxo-1,2,5,6-tetrahydropyrido[2',1':2,3]imidazo[4,5-h]quinoline-3-carboxylic Acid (AB-161), a Novel Orally Available and Liver-Centric HBV RNA Destabilizer” (J Med Chem, 2024).
In brackets after ≈: the same amount, converted by molar mass.

Tests used:
Hepatitis B virus [1] = test: Antiviral activity against HBV infected in human HepG2.2.15 cells assessed as reduction in HBsAg level incubated for 6 days with media and compound replenishment on third day by CLIA; format: functional, organism-based; details: HepG2.2.15, 144 h; for EC90: time 6 day
[2] = Cytotoxicity in human HepG2.2.15 cells by Cell Titer-Glo assay; format: toxicity, cell-based, HepG2 2.2.15
[3] = Metabolic stability in human liver microsomes assessed as clearance at 0.3 uM preincubated for 5 mins followed by NADPH addition measured upto 60 mins by LC-MS/MS analysis; format: ADME, Microsome; details: time < 65 min, read-out: CLH
[4] = Metabolic stability in Sprague-Dawley rat liver microsomes assessed as clearance at 0.3 uM preincubated for 5 mins followed by NADPH addition measured upto 60 mins by LC-MS/MS analysis; format: ADME, Microsome; details: time < 65 min, read-out: CLH
[5] = Metabolic stability in CD-1 mouse liver microsomes assessed as clearance at 0.3 uM preincubated for 5 mins followed by NADPH addition measured upto 60 mins by LC-MS/MS analysis; format: ADME, Microsome; details: time < 65 min, read-out: CLH
[6] = AUC (0 to 24 hrs) in CD-1 mouse at 10 mg/kg, po measured for 24 hrs by LC-MS/MS analysis; format: ADME, organism-based; details: in vivo
[7] = Ratio of total drug concentration in liver to plasma in CD-1 mouse at 10 mg/kg, po measured for 12 hrs by LC-MS/MS analysis; format: ADME, organism-based; details: liver and plasma
[8] = Selectivity ratio of drug concentration in liver in CD-1 mouse at 10 mg/kg, po measured for 12 hrs to EC90 for antiviral activity against HBV infected in human HepG2.2.15 cells assessed as reduction in HBsAg level; format: ADME, organism-based; details: in vivo
[9] = Ratio of total drug concentration in liver to plasma in CD-1 mouse at 10 mg/kg, po measured for 24 hrs by LC-MS/MS analysis; format: ADME, organism-based; details: CD-1, mouse, liver and plasma
[10] = Selectivity ratio of drug concentration in liver in CD-1 mouse at 10 mg/kg, po measured for 24 hrs to EC90 for antiviral activity against HBV infected in human HepG2.2.15 cells assessed as reduction in HBsAg level; format: ADME, organism-based; details: in vivo
Hepatitis B virus [11] = test: Antiviral activity against HBV infected in human HepG2.2.15 cells assessed as reduction in HBsAg level incubated for 6 days with media and compound replenishment on third day in presence of 40 percent mouse serum by CLIA; format: functional, organism-based; details: HepG2.2.15, 144 h
[12] = Metabolic stability in cynomolgous monkey liver microsomes assessed as clearance at 0.3 uM preincubated for 5 mins followed by NADPH addition measured upto 60 mins by LC-MS/MS analysis; format: ADME, Macaca fascicularis, Microsome; details: cynomolgus monkey, read-out: CLH
[13] = Kinetic solubility of compound in aqueous buffer at pH 7.4 at 200 uM incubated for 24 hrs by UPLC UV analysis; format: physicochemical; details: read-out: Kinetic_solubility
[14] = Kinetic solubility of compound in aqueous buffer at pH 4 at 200 uM incubated for 24 hrs by UPLC UV analysis; format: physicochemical; details: read-out: Kinetic_solubility
[15] = Permeability across apical to basal side in human Caco-2 cells at 5 uM incubated for 120 mins by LC-MS/MS analysis; format: ADME, cell-based; details: read-out: permeability
[16] = Permeability across basal to apical side in human Caco-2 cells at 5 uM incubated for 120 mins by LC-MS/MS analysis; format: ADME, cell-based; details: read-out: permeability
[17] = Plasma protein binding in human assessed as unbound fraction at 2 uM incubated for 6 hrs by equilibrium dialysis; format: ADME, cell-free
[18] = Plasma protein binding in monkey assessed as unbound fraction at 2 uM incubated for 6 hrs by equilibrium dialysis; format: ADME, cell-free, Macaca mulatta; details: rhesus monkey
[19] = Plasma protein binding in dog assessed as unbound fraction at 2 uM incubated for 6 hrs by equilibrium dialysis; format: ADME, cell-free, Canis lupus familiaris
[20] = Plasma protein binding in rat assessed as unbound fraction at 2 uM incubated for 6 hrs by equilibrium dialysis; format: ADME, cell-free
[21] = Plasma protein binding in mouse assessed as unbound fraction at 2 uM incubated for 6 hrs by equilibrium dialysis; format: ADME, cell-free
Hepatitis B virus [22] = test: Antiviral activity against HBV genotype D in immuno-competent C57BL/6 mouse model of chronic HBV assessed as log10 reduction in serum HBsAg production at 1 mg/kg, po qd for 14 days measured 24 hrs post-last dose by EIA relative to control; format: functional; details: time 15 day
Hepatitis B virus [23] = test: Antiviral activity against HBV genotype D in immuno-competent C57BL/6 mouse model of chronic HBV assessed as log10 reduction in serum HBsAg production at 10 mg/kg, po qd for 14 days measured 24 hrs post-last dose by EIA relative to control; format: functional; details: time 15 day
[24] = Drug concentration in CD-1 mouse plasma at 10 mg/kg, po measured for 24 hrs by LC-MS/MS analysis; format: ADME, organism-based; details: read-out: Ct
[25] = Drug concentration in CD-1 mouse liver at 10 mg/kg, po measured for 24 hrs by LC-MS/MS analysis; format: ADME, organism-based; details: read-out: Ct
[26] = Drug concentration in Beagle dog plasma at 10 mg/kg, po measured for 12 hrs by LC-MS/MS analysis; format: ADME, organism-based, Canis lupus familiaris; details: read-out: Ct
[27] = Drug concentration in Beagle dog kidney at 10 mg/kg, po measured for 12 hrs by LC-MS/MS analysis; format: ADME, organism-based, Canis lupus familiaris; details: read-out: Ct
[28] = Drug concentration in Beagle dog lung at 10 mg/kg, po measured for 12 hrs by LC-MS/MS analysis; format: ADME, organism-based, Canis lupus familiaris; details: read-out: Ct
[29] = Ratio of drug concentration in liver to plasma of CD-1 mouse at 10 mg/kg, po measured for 24 hrs by LC-MS/MS analysis; format: ADME, organism-based; details: liver and plasma
[30] = Ratio of drug concentration in liver to plasma of Beagle dog at 10 mg/kg, po measured for 12 hrs by LC-MS/MS analysis; format: ADME, organism-based, Canis lupus familiaris; details: liver (relative to plasma)
[31] = Ratio of drug concentration in kidney to plasma of Beagle dog at 10 mg/kg, po measured for 12 hrs by LC-MS/MS analysis; format: ADME, organism-based, Canis lupus familiaris; details: kidney (relative to plasma)
[32] = Ratio of drug concentration in lung to plasma of Beagle dog at 10 mg/kg, po measured for 12 hrs by LC-MS/MS analysis; format: ADME, organism-based, Canis lupus familiaris; details: lung (relative to plasma)

COCCCOc1cc2c(nc1OC)-c1cc(=O)c(C(=O)O)cn1[C@H](C(C)C)C2
EC50 (Hepatitis B virus [1]): 1.3 nM
EC90 (Hepatitis B virus [1]): 13 nM
CC50 [2]: > 50000 nM
microsomal CLint at 0.3 µM [3]: 2 µL/min/mg
microsomal CLint at 0.3 µM [4]: 3 µL/min/mg
microsomal CLint at 0.3 µM [5]: 3 µL/min/mg
AUC(0-t) at 24 h [6]: 4770 ng·h/mL
Kp at 12 h [7]: 6
Ratio [8]: 191
Kp at 24 h [9]: 3
Ratio [10]: 4
EC50 (Hepatitis B virus [11]): 7.8 nM
microsomal CLint at 0.3 µM [12]: 5 µL/min/mg
solubility kinetic at 24 h, 200 µM [13]: 175 µM (≈ 70.4 µg/mL)
solubility kinetic at 24 h, 200 µM [14]: 190 µM (≈ 76.5 µg/mL)
Papp A→B at 2 h, 5 µM [15]: 11.5 ×10⁻⁶ cm/s
Papp B→A at 2 h, 5 µM [16]: 43.8 ×10⁻⁶ cm/s
fraction unbound at 6 h, 2 µM [17]: 0.55
fraction unbound at 6 h, 2 µM [18]: 0.58
fraction unbound at 6 h, 2 µM [19]: 0.38
fraction unbound at 6 h, 2 µM [20]: 0.46
fraction unbound at 6 h, 2 µM [21]: 0.66
log(activity) (Hepatitis B virus [22]): 0.81
log(activity) (Hepatitis B virus [23]): 1
concentration at 24 h [24]: 29 ng/g
concentration at 24 h [25]: 87 ng/g
concentration at 12 h [26]: 48.3 ng/g
concentration at 12 h [27]: 129 ng/g
concentration at 12 h [28]: 63 ng/g
Kp at 24 h [29]: 3
Kp at 12 h [30]: 2.9
Kp at 12 h [31]: 2.7
Kp at 12 h [32]: 1.3

COc1cc(OC(F)F)c2nc3c(n2c1)C[C@@H](C(C)(C)C)c1cc(C(=O)O)c(=O)[nH]c1-3
EC50 (Hepatitis B virus [1]): 2.2 nM
EC90 (Hepatitis B virus [1]): 28 nM
CC50 [2]: > 50000 nM
microsomal CLint at 0.3 µM [3]: 4 µL/min/mg
microsomal CLint at 0.3 µM [4]: 3 µL/min/mg
microsomal CLint at 0.3 µM [5]: 7 µL/min/mg
AUC(0-t) at 24 h [6]: 18900 ng·h/mL
Kp at 12 h [7]: 109
Ratio [8]: 1675
Kp at 24 h [9]: 184
Ratio [10]: 662
EC50 (Hepatitis B virus [11]): 40 nM
microsomal CLint at 0.3 µM [12]: 2 µL/min/mg
solubility kinetic at 24 h, 200 µM [13]: 183 µM (≈ 79.3 µg/mL)
solubility kinetic at 24 h, 200 µM [14]: 43 µM (≈ 18.6 µg/mL)
Papp A→B at 2 h, 5 µM [15]: 4.4 ×10⁻⁶ cm/s
Papp B→A at 2 h, 5 µM [16]: 54.5 ×10⁻⁶ cm/s
fraction unbound at 6 h, 2 µM [17]: 0.05
fraction unbound at 6 h, 2 µM [18]: 0.02
fraction unbound at 6 h, 2 µM [19]: 0.05
fraction unbound at 6 h, 2 µM [20]: 0.06
fraction unbound at 6 h, 2 µM [21]: 0.02
log(activity) (Hepatitis B virus [22]): 0.34
log(activity) (Hepatitis B virus [23]): 0.71
concentration at 24 h [24]: 56.8 ng/g
concentration at 24 h [25]: 10400 ng/g
concentration at 12 h [26]: 272 ng/g
concentration at 12 h [27]: 1180 ng/g
concentration at 12 h [28]: 135 ng/g
Kp at 24 h [29]: 184
Kp at 12 h [30]: 11
Kp at 12 h [31]: 4.3
Kp at 12 h [32]: 0.5

CC(C)(C)[C@@H]1Cc2c(nc3c(C(F)(F)F)cc(C4CC4)cn23)-c2[nH]c(=O)c(C(=O)O)cc21
EC50 (Hepatitis B virus [1]): 0.6 nM
EC90 (Hepatitis B virus [1]): 6.1 nM
CC50 [2]: 48000 nM
microsomal CLint at 0.3 µM [3]: 1 µL/min/mg
microsomal CLint at 0.3 µM [4]: 5 µL/min/mg
microsomal CLint at 0.3 µM [5]: 1 µL/min/mg
AUC(0-t) at 24 h [6]: 20500 ng·h/mL
Kp at 12 h [7]: 56
Ratio [8]: 12480
Kp at 24 h [9]: 67
Ratio [10]: 2089
EC50 (Hepatitis B virus [11]): 6.8 nM
microsomal CLint at 0.3 µM [12]: 4 µL/min/mg
solubility kinetic at 24 h, 200 µM [13]: 154 µM (≈ 68.6 µg/mL)
solubility kinetic at 24 h, 200 µM [14]: 39 µM (≈ 17.4 µg/mL)
Papp A→B at 2 h, 5 µM [15]: 26.6 ×10⁻⁶ cm/s
Papp B→A at 2 h, 5 µM [16]: 65.6 ×10⁻⁶ cm/s
fraction unbound at 6 h, 2 µM [17]: 0.05
fraction unbound at 6 h, 2 µM [18]: 0.02
fraction unbound at 6 h, 2 µM [19]: 0.02
fraction unbound at 6 h, 2 µM [20]: 0.02
fraction unbound at 6 h, 2 µM [21]: 0.01
log(activity) (Hepatitis B virus [22]): 0.47
log(activity) (Hepatitis B virus [23]): 1.07
concentration at 24 h [24]: 85.6 ng/g
concentration at 24 h [25]: 5740 ng/g
concentration at 12 h [26]: 110 ng/g
concentration at 12 h [27]: 347 ng/g
concentration at 12 h [28]: 73 ng/g
Kp at 24 h [29]: 67
Kp at 12 h [30]: 2.5
Kp at 12 h [31]: 3.2
Kp at 12 h [32]: 0.7
